Source: paper PMC6459586, “Structure-Based Design of MptpB Inhibitors That Reduce Multidrug-Resistant Mycobacterium tuberculosis Survival and Infection Burden in Vivo” (Journal of Medicinal Chemistry, 2018)
Entries after “also recorded” stand apart in the source; their conditions may differ. Where two headings read alike, the source gives them in different places.

Key:
hPTP1B = molecular target: T1, hPTP1B (Homo sapiens, UniProt P18031); experiment: biochemical; conditions: read-out: IC50 hPTP1B (Supplementary Table 1)
T1 construct: GST (N, cleaved yes); made in house; host or cells: E. coli

hVHR = molecular target: T2, hVHR (Homo sapiens, UniProt P51452); experiment: biochemical; conditions: read-out: IC50 hVHR (Supplementary Table 1)
T2 construct: GST (N, cleaved yes); made in house; host or cells: E. coli

[1] = system: BCG in mouse macrophages (J774); type: cell-based, Mycobacterium bovis Bacille Calmette-Guerin
[2] = system: M. tuberculosis H37Rv in human macrophages (THP1); type: cell-based
[3] = system: MDR strain (Beijing-W) in human macrophages (THP1); type: cell-based, M. tuberculosis
BCG = type: cell-based, Mycobacterium bovis Bacille Calmette-Guerin
[4] = system: PI3P on M. tuberculosis phagosomes (RAW264.7 macrophages); type: cell-based
[5] = Pharmacokinetic evaluation in guinea pigs; type: in vivo; conditions: male, Durkin Hartley, guinea pig, in vivo
Method: Guinea pig males (Durkin Hartley) were used to evaluate the pharmacokinetics and tissue distribution of compounds. The route of administration was either intraperitoneal (ip) or oral (po) with dosage varying from 3.5 to 8 mg kg^–1 (op) and 2.5–4 mg kg^–1 (ip). In each case 4 samples were collected per time point at 0.1, 0.5, 2, 4, and 8 h post dose for ip and 0.25, 0.5, 2, 4, and 8 h post dose for po. Compounds were prepared in 10% DMSO, 5% Cremaphor, and 85% physiological saline for IP administration or 0.5% (v/v) Tween 80, 99.5% (v/v) 0.5% methylcellulose for oral administration. Tissue samples (n = 4) from lung, liver, and kidney were collected at the end of the study and snap frozen prior to bioanalysis.

M. tuberculosis H37Rv = experiment: Acute guinea pig model of TB infection; type: in vivo; conditions: 28 days of treatment, oral daily, 13 100 mg/kg, RIF 50 mg/kg
M. tuberculosis = type: in vivo, guinea pig
physchem = type: physicochemical; conditions: pH 7.4
Method: Experimental Methods (ADME determinations).
ADME determinations for Compound 13 (data kindly supplied by LifeArc).
LogD measurements were carried out using the shake flask method. Compound was diluted from a 10 mM DMSO stock solution into an eppendorf containing equal amounts of octanol and phosphate buffered saline (PBS) to give a final concentration of 100 µM. The tubes were shaken for 12 hours, centrifuged at 10000 rpm for 10 minutes and samples taken from the octanol and PBS layers. The samples from both layers were analysed in triplicate by LC-MS/MS (Aglient Technologies G6410 series, triple quadrupole with MM-ESI ion source) using optimised multiple reaction monitoring (MRM) scans and a standard column gradient on an Acquity UPLC BEH C8 1.7 µm column, running acetonitrile and water with 0.05% acetic acid as the mobile phase. The ratios of areas of the peaks were used to calculate the Log D in accordance with the equation:
Log D = Log10(Area-TL/Area BL)
PBS pH7.4 in a filtration plate at a target concentration of 200 µM giving a final solution composition of 98:2 PBS:DMSO. […] The UV absorbance for these solutions was read across 230-400 nM at 1 nM intervals using a T ECAN Safire II plate reader and a suitable UV wavelength chosen around the UV maximum of each compound. […]

[6] = guinea pig, 50 or 100 mg/kg orally once daily for 7 days
[7] = chronic model, 28 days of treatment from day 28, oral daily, 13 100 mg/kg, RIF 50 mg/kg
[8] = chronic model, 28 days of treatment from day 28, oral daily, 13 100 mg/kg, RIF 50 mg/kg, listed as Cpd 13

T1 sequence (P18031 whole entry): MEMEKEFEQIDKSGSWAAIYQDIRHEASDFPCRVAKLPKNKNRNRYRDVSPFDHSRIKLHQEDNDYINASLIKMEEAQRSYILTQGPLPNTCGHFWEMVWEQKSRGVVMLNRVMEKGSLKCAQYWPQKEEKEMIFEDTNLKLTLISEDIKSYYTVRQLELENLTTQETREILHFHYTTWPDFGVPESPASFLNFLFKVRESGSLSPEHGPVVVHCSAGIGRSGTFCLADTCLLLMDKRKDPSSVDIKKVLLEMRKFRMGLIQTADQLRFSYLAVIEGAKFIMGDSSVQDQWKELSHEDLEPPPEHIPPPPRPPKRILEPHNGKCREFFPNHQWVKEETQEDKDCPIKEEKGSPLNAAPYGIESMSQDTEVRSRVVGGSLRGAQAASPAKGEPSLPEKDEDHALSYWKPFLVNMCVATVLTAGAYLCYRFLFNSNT
T2 sequence (P51452 whole entry): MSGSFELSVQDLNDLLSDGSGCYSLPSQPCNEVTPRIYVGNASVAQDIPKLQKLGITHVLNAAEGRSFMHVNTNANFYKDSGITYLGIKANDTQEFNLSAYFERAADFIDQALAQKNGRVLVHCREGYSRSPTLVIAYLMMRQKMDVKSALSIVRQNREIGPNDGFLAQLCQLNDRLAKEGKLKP

## Cc1onc(C(=O)O)c1-c1cccc(-c2cc(Cl)c(O)c(Cl)c2)c1 [Compound 13, 4-(3′,5′-Dichloro-4′-hydroxy-3-biphenyl)-5-methylisoxazole-3-carboxylic Acid]
hPTP1B
  IC50: > 100 µM
hVHR
  IC50: > 100 µM
[1]
  reduction in intracellular mycobacterial (BCG) burden: up to 84%
[2]
  reduction of intracellular mycobacterial burden, H37Rv: up to 63%
[3]
  reduction of intracellular mycobacterial burden, MDR strain (Beijing-W): up to 74%
BCG
  effect on extracellular growth of BCG: does not affect extracellular bacterial growth; also recorded: not affected
[4]
  duration of the peak of PI3P on phagosomes: up to 12 min
[5]; ip, 4 mg/kg, IP, dose mg/kg: 13 4, 5 2.5, 8 1.25, 9 2.5
  half-life: 1.4 h
[5]; po, 8 mg/kg, oral, dose mg/kg: 13 8, 5 5, 8 3.5, 9 5
  half-life: 5 h
M. tuberculosis H37Rv
  Lungs infection burden, average: 5.9 log CFU
  Lungs log reduction relative to vehicle: 0.9 log
  Spleen infection burden, average: 5.6 log CFU
  Spleen log reduction relative to vehicle: 0 log
M. tuberculosis; [7]
  Lungs infection burden, average: 4.7 log CFU
  Lungs log reduction relative to vehicle: at least 1 log
  Spleen infection burden, average: 4.2 log CFU
  Spleen log reduction relative to vehicle: at least 1 log
M. tuberculosis; [8]
  Lungs log reduction relative to vehicle: 1.0 log
  Spleen log reduction relative to vehicle: 1.0 log
M. tuberculosis; guinea pig, in vivo
  Lungs weight % change relative to Vehicle: -19%
  Lungs weight, average: 4.4 g
  Spleen weight % change relative to Vehicle: -19%
  Spleen weight, average: 2.1 g
M. tuberculosis; guinea pig, in vivo, 100 mg/kg
  histopathology of lungs and spleens: improvement in the pathology
physchem
  logD: 4
[6]
  adverse drug effects (tolerability): no adverse drug effects
  weight increases during the tolerability trial: > 5%
